Laboratory results as given in patent US4278671A, “7-[2-(2-Aminothiazol-4-yl)-2-(syn)-methoxyiminoacetamido] cephalosporins” (Takeda Chemical Industries, Ltd., priority 1976, dated 1981).
≈ marks a conversion by molar mass, not a printed value. Where two headings read alike, the source gives them in different places.

Assays:
[1] = system: Serratia marcescens IFO 12648; assay: minimal inhibitory concentration against Serr. marcescens IFO 12648; type: cell-based; settings: IFO12648
P. rettgeri 8(TN0336) = assay: minimal inhibitory concentration against P. rettgeri 8 (TN0336); type: cell-based, Proteus rettgeri; settings: Providencia rettgeri
[2] = system: Proteus morganii IFO 3168; assay: minimal inhibitory concentration against P. morganii IFO 3168; type: cell-based; settings: Morganella morganii, IFO3168
Ent. cloacae TN1282 = assay: minimal inhibitory concentration against Ent. cloacae TN1282; type: cell-based; settings: Enterobacter cloacae
Ps. aeruginosa P2 = assay: minimal inhibitory concentration against Ps. aeruginosa P2; type: cell-based; settings: Pseudomonas aeruginosa
[3] = system: Acinetobacter anitratus TN-1140; assay: minimal inhibitory concentration against Acinetobacter anitratus TN-1140; type: cell-based; settings: Acinetobacter calcoaceticus, TN1140
Klebsiella pneumoniae DT = assay: minimal inhibitory concentration against K. pneumoniae DT; type: cell-based
[4] = system: Citrobacter freundii GN 99; assay: minimal inhibitory concentration against Cit. freundii GN 99; type: cell-based; settings: GN99
Serratia TN 0024 = assay: minimal inhibitory concentration against Serratia TN 0024; type: cell-based
[5] = system: Proteus vulgaris IFO 3988; assay: minimal inhibitory concentration against P. vulgaris IFO 3988; type: cell-based; settings: IFO3988
E. coli = assay: protective effect on infected mice (intraperitoneal infection with E. coli); type: in vivo; settings: Escherichia coli, 168 h, male mice ICR/SLC, 7 days observation
Text: *Test animals: male mice (ICR/SLC) 5 mice per group per single
Infection: intraperitoneally with E. coli
Observation period: 7 days

Ps. aeruginosa PM 3 = assay: minimal inhibitory concentration against Ps. aeruginosa PM 3; type: cell-based; settings: Pseudomonas aeruginosa, PM3
Proteus rettgeri GN 4733 = assay: minimal inhibitory concentration against P. rettgeri GN 4733; type: cell-based; settings: Providencia rettgeri, GN4733
[6] = system: Klebsiella pneumoniae GN 3835; assay: minimal inhibitory concentration against K. pneumoniae GN 3835; type: cell-based; settings: GN3835
E. coli 0-111 = assay: minimal inhibitory concentration against E. coli 0-111; type: cell-based, Escherichia coli; settings: 0111
P. vulgaris GN 4413 = assay: minimal inhibitory concentration against P. vulgaris GN 4413; type: cell-based; settings: Proteus vulgaris, GN4413
E. coli T-7 = assay: minimal inhibitory concentration against E. coli T-7; type: cell-based; settings: Escherichia coli, T7
Ps. aeruginosa GN3407 = assay: minimal inhibitory concentration against Ps. aeruginosa GN3407; type: cell-based; settings: Pseudomonas aeruginosa
[7] = system: Proteus mirabilis GN 4359; assay: minimal inhibitory concentration against P. mirabilis GN 4359; type: cell-based; settings: GN4359
Ps. aeruginosa Pd 1 = assay: minimal inhibitory concentration against Ps. aeruginosa Pd 1; type: cell-based; settings: Pseudomonas aeruginosa, PD1
[8] = system: Citrobacter freundii GN 1706; assay: minimal inhibitory concentration against Cit. freundii GN 1706; type: cell-based; settings: GN1706
E. coli NIHJ = assay: minimal inhibitory concentration against E. coli NIHJ; type: cell-based; settings: Escherichia coli
[9] = system: Enterobacter cloacae IFO 12937; assay: minimal inhibitory concentration against Ent. cloacae IFO 12937; type: cell-based
[10] = Serratia marcescens, Serr. marcescens IFO 12648, read-out: minimal inhibitory concentration
[11] = P. rettgeri 8(TN0336), read-out: minimal inhibitory concentration
[12] = P. morganii IFO 3168, read-out: minimal inhibitory concentration
[13] = Klebsiella pneumoniae, K. pneumoniae DT, read-out: minimal inhibitory concentration
[14] = Citrobacter freundii, Cit. freundii GN 99, read-out: minimal inhibitory concentration
[15] = TN0024, Serratia TN 0024, read-out: minimal inhibitory concentration
[16] = Proteus vulgaris, P. vulgaris IFO 3988, read-out: minimal inhibitory concentration
[17] = P. rettgeri GN 4733, read-out: minimal inhibitory concentration
[18] = Klebsiella pneumoniae, K. pneumoniae GN 3835, read-out: minimal inhibitory concentration
[19] = Escherichia coli, E. coli 0-111, read-out: minimal inhibitory concentration
[20] = Proteus mirabilis, P. mirabilis GN 4359, read-out: minimal inhibitory concentration
[21] = Citrobacter freundii, Cit. freundii GN 1706, read-out: minimal inhibitory concentration
[22] = Enterobacter cloacae, Ent. cloacae IFO12937, read-out: minimum inhibitory concentration

Compound	MIC [1, 10]	MIC (P. rettgeri 8(TN0336); [11])	MIC [2, 12]	MIC (Ent. cloacae TN1282)	MIC (Ps. aeruginosa P2)	MIC [3]	MIC (Klebsiella pneumoniae DT; [13])	MIC [4, 14]	MIC (Serratia TN 0024; [15])	MIC [5, 16]	ED50 (E. coli; subcutaneous (SC))	MIC (Ps. aeruginosa PM 3)	MIC (Proteus rettgeri GN 4733; [17])	MIC [6, 18]	MIC (E. coli 0-111; [19])	MIC (P. vulgaris GN 4413)	MIC (E. coli T-7)	MIC [7, 20]	MIC [8, 21]	MIC (E. coli NIHJ)	also measured
CO/N=C(\C(=O)NC1C(=O)N2C(C(=O)O)=C(COC(N)=O)CSC12)c1csc(N)n1 (stereo not drawn) [Example 1, sodium 7-[2-(2-aminothiazol-4-yl)-2-(syn)-methoxyiminoacetamido]-3-carbamoyloxymethyl-3-cephem-4-carboxylate]	1.56 µg/mL	≤ 0.012 µg/mL	0.39 µg/mL	6.25 µg/mL	25 µg/mL	6.25 µg/mL	< 0.012 µg/mL	0.2 µg/mL	0.2 µg/mL	≤ 0.02 µg/mL	0.015 mg/kg	3.13 µg/mL	0.05 µg/mL	0.05 µg/mL	0.024 µg/mL	1.56 µg/mL	0.39 µg/mL	≤ 0.02 µg/mL	0.39 µg/mL	0.1 µg/mL	MIC (Ps. aeruginosa GN3407): > 100 µg/mL; MIC (Ps. aeruginosa Pd 1): 50 µg/mL
CO/N=C(\C(=O)NC1C(=O)N2C(C(=O)O)=C(C)CSC12)c1csc(N)n1 (stereo not drawn) [Example 5, sodium 7-[2-(2-aminothiazol-4-yl)-2-(syn)-methoxyiminoacetamido]desacetoxycephalosporanate]	12.5 µg/mL	≤ 0.012 µg/mL	12.5 µg/mL	50 µg/mL	> 100 µg/mL	12.5 µg/mL	0.2 µg/mL	3.13 µg/mL	1.56 µg/mL	0.2 µg/mL	0.111 mg/kg	25 µg/mL	0.1 µg/mL	0.2 µg/mL	0.39 µg/mL	1.56 µg/mL	6.25 µg/mL	0.1 µg/mL	6.25 µg/mL	0.78 µg/mL	MIC (Ps. aeruginosa GN3407): > 100 µg/mL; MIC (Ps. aeruginosa Pd 1): > 100 µg/mL
CO/N=C(\C(=O)NC1C(=O)N2C(C(=O)O)=C(CSc3nnc(C)s3)CSC12)c1csc(N)n1 (stereo not drawn) [(a), Sodium 7-[2-(2-aminothiazol-4-yl)-2-(syn)-methoxyiminoacetamido]-3-(2-methyl-1,3,4-thiadiazol-5-yl)thiomethyl-3-cephem-4-carboxylate]	0.78 µg/mL	≤ 0.012 µg/mL	0.1 µg/mL	–	–	–	0.05 µg/mL	0.2 µg/mL	0.78 µg/mL	0.1 µg/mL	–	–	0.39 µg/mL	0.39 µg/mL	0.1 µg/mL	1.56 µg/mL	1.56 µg/mL	0.2 µg/mL	0.78 µg/mL	0.2 µg/mL	MIC [9, 22]: 3.13 µg/mL
CO/N=C(\C(=O)NC1C(=O)N2C(C(=O)OCOC(=O)C(C)(C)C)=C(CSc3nnnn3C)CSC12)c1csc(N)n1 (stereo not shown) [Example 15]	–	–	–	–	–	–	–	–	–	–	–	–	–	–	–	–	–	–	–	–	ED50 (E. coli; oral): 0.11 mg/kg
CO/N=C(\C(=O)NC1C(=O)N2C(C(=O)O)=C(CSc3nnnn3C)CSC12)c1csc(N)n1 (stereo not shown) [Example 2]	0.78 µg/mL (≈ 1.52 µM)	≤ 0.012 µg/mL	0.05 µg/mL (≈ 0.0977 µM)	1.56 µg/mL (≈ 3.05 µM)	50 µg/mL (≈ 97.7 µM)	25 µg/mL (≈ 48.9 µM)	0.024 µg/mL (≈ 0.0469 µM)	0.1 µg/mL (≈ 0.195 µM)	0.2 µg/mL (≈ 0.391 µM)	0.024 µg/mL (≈ 0.0469 µM)	0.022 mg/kg	0.78 µg/mL (≈ 1.52 µM)	0.2 µg/mL (≈ 0.391 µM)	0.2 µg/mL (≈ 0.391 µM)	0.024 µg/mL (≈ 0.0469 µM)	0.39 µg/mL (≈ 0.762 µM)	0.78 µg/mL (≈ 1.52 µM)	0.1 µg/mL (≈ 0.195 µM)	0.2 µg/mL (≈ 0.391 µM)	0.1 µg/mL (≈ 0.195 µM)	MIC (Ps. aeruginosa GN3407): 50 µg/mL (≈ 97.7 µM); MIC (Ps. aeruginosa Pd 1): 12.5 µg/mL (≈ 24.4 µM)
CO/N=C(\C(=O)NC1C(=O)N2C(C(=O)O)=C(CSc3nnnn3CCN(C)C)CSC12)c1csc(N)n1 (stereo not drawn) [(e), 7-[2-(2-Aminothiazol-4-yl)-2-(syn)-methoxyiminoacetamido]-3-[1-(2-N,N-dimethylaminoethyl)-1,2,3,4-tetrazol-5-yl]thiomethyl-3-cephem-4-carboxylic acid betaine]	1.56 µg/mL (≈ 2.74 µM)	0.024 µg/mL (≈ 0.0422 µM)	0.2 µg/mL (≈ 0.352 µM)	–	–	–	0.1 µg/mL (≈ 0.176 µM)	0.2 µg/mL (≈ 0.352 µM)	0.78 µg/mL (≈ 1.37 µM)	0.2 µg/mL (≈ 0.352 µM)	–	–	0.78 µg/mL (≈ 1.37 µM)	0.2 µg/mL (≈ 0.352 µM)	0.024 µg/mL (≈ 0.0422 µM)	1.56 µg/mL (≈ 2.74 µM)	1.56 µg/mL (≈ 2.74 µM)	0.39 µg/mL (≈ 0.686 µM)	0.78 µg/mL (≈ 1.37 µM)	0.2 µg/mL (≈ 0.352 µM)	MIC [9, 22]: 6.25 µg/mL (≈ 11 µM)
CO/N=C(\C(=O)NC1C(=O)N2C(C(=O)O)=C(COC(C)=O)CSC12)c1csc(N)n1 (stereo not drawn) [Example 3, sodium 7-[2-(2-aminothiazol-4-yl)-2-(syn)-methoxyiminoacetamido]cephalosporanate]	3.13 µg/mL	≤ 0.012 µg/mL	0.2 µg/mL	6.25 µg/mL	50 µg/mL	25 µg/mL	0.024 µg/mL	0.2 µg/mL	0.78 µg/mL	0.024 µg/mL	0.018 mg/kg	1.56 µg/mL	0.2 µg/mL	0.05 µg/mL	0.05 µg/mL	0.78 µg/mL	0.78 µg/mL	0.05 µg/mL	0.39 µg/mL	0.2 µg/mL	MIC (Ps. aeruginosa GN3407): 50 µg/mL; MIC (Ps. aeruginosa Pd 1): 25 µg/mL
O=C(Cc1cccs1)N[C@@H]1C(=O)N2C(C(=O)[O-])=C(C[n+]3ccccc3)CS[C@H]12 [CER, cephaloridine, reference compound]	–	–	–	–	–	–	–	–	–	–	1.25 mg/kg	–	–	–	–	–	–	–	–	–	–
CO/N=C(/C(=O)NC1C(=O)N2C(C(=O)O)=C(COC(N)=O)CSC12)c1csc(N)n1 (stereo not drawn) [compound 27, sodium 7-[(2-aminothiazol-4-yl)-α-(anti)-methoxyimino]acetamido-3-carbamoyloxymethyl-3-cephem-4-carboxylate, reference compound]	–	–	–	–	–	–	–	–	–	–	–	–	–	–	–	–	–	–	–	–	MIC ([1]; Serratia marcescens IFO 12648, read-out: MIC): 12.5 µg/mL; MIC (P. rettgeri 8(TN0336); Proteus rettgeri 8 TNO 336, read-out: MIC): < 0.2 µg/mL; MIC ([2]; Proteus morganii IFO 3168, read-out: MIC): 0.78 µg/mL; MIC (Klebsiella pneumoniae DT; Klebsiella pneumoniae DT, read-out: MIC): 1.56 µg/mL; MIC ([4]; Citrobacter freundii GN 99, read-out: MIC): 1.56 µg/mL; MIC (Serratia TN 0024; Serratia TN0024, read-out: MIC): 6.25 µg/mL; MIC ([5]; Proteus vulgaris IFO 3988, read-out: MIC): 0.39 µg/mL; MIC (Proteus rettgeri GN 4733; Proteus rettgeri GN 4733, read-out: MIC): 0.78 µg/mL; MIC ([6]; Klebsiella pneumoniae GN 3835, read-out: MIC): 6.25 µg/mL; MIC (E. coli 0-111; Escherichia coli 0-111, read-out: MIC): 0.78 µg/mL; MIC ([7]; Proteus mirabilis GN 4359, read-out: MIC): 0.78 µg/mL; MIC ([9]; IFO12937, Enterobacter cloacae IFO 12937, read-out: MIC): 25 µg/mL; MIC ([8]; Citrobacter freundii GN 1706, read-out: MIC): 3.13 µg/mL
CC1=C(C(=O)O)N2C(=O)[C@@H](NC(=O)[C@H](N)c3ccccc3)[C@H]2SC1 [CEX, cephalexin, reference compound]	–	–	–	–	–	–	–	–	–	–	–	–	–	–	–	–	–	–	–	–	ED50 (E. coli; oral): 2.51 mg/kg
